Data on nine compounds can be found in US20260049078A1, “DIFLUORO- AND TRIFLUORO-ACETYL HYDRAZIDES AS SELECTIVE HDAC6 INHIBITORS” (ITALFARMACO S.P.A., priority 2022, published 2026).

The test system of assay [1] is human B cell precursor leukemia 697. The assay is described as follows: In vitro α-tubulin acetylation in 697 cell line. Format: cell-based. The note with it: read-out: TubAc 697 cells EC50. As for the experimental part: The in vitro α-tubulin acetylation was evaluated on human B cell precursor leukemia 697.
The 697 cells were maintained in RPMI Medium 1640 (Gibco, cat: 21875-034) supplemented with 10 mM HEPES (Gibco, cat: 15630-080), Pen-Strep (Penicillin 100 U/ml, Streptomycin 100 μg/ml, Gibco, cat: 15140-122) and 10% fetal bovine serum (Gibco, cat: 10270-106).
The cells were plated in 12-well plates (Costar, cat: 3512) at the density of 5.5×10^5 cells/ml.
Serial dilutions of test compounds in DMSO were prepared using 20 mM stock solutions to obtain 8 doses 200× concentrated in respect to final doses (2.7-100000 nM). Then the DMSO solutions were diluted 10× in culture medium to obtain 20× concentrated solutions which were used for cells treatment (125 μl of medium solutions were added to 2.375 ml of cells suspension). The final DMSO content was set as 0.5%. The plates were incubated at 37° C., 5% CO2 for 16 hours.
At the end of the incubation period, the cells were harvested and centrifuged for 5 minutes at 200×g and washed with 0.9% NaCl at 4° C. The resulting pellet was treated for 30 minutes at 4° C. with 100 μl Complete Lysis-M buffer containing protease inhibitors (Complete Lysis-M Roche+Complete Tablets, Mini Easypack, cat: 4719956001) and phosphatase inhibitor cocktails (PhosStop Easypack, Roche, cat: 4906837001) and then centrifuged 10 minutes at 18213×g. The protein concentration in each supernatant was determined using BCA Protein Assay Kit (Pierce, cat: 23227). The samples were diluted in PBS 1× to obtain 2 μg/ml concentration and coated in MaxiSorp 96-well plates (Nunc, cat: 442404). The plates were incubated overnight at room temperature.
Plates were washed twice with Wash Buffer (PBS 1×+0.005% tween 20) and saturated for 1 hour at room temperature with 300 μL of 1×PBS containing 10% FBS. After washing twice with Wash Buffer, the plates were incubated for 2 hours at room temperature in the presence of 100 μl/well either anti-acetylated-α-tubulin antibody (Monoclonal Anti-Tubulin, Acetylated antibody produced in mouse, Sigma-Aldrich, cat: T6793) or total anti-α-tubulin antibody (Monoclonal Anti-α-Tubulin produced in mouse, Sigma-Aldrich, cat: T6074) diluted 1:1000 in 1×PBS containing 10% FBS. Following 5 washing cycles with Wash Buffer the secondary antibody conjugated with the enzyme HRP (Goat anti-Mouse IgG, IgM, IgA (H+L), stock concentration 0.5 mg/ml, Thermo Fisher Scientific, cat: A10668), diluted 1:1000 in 1×PBS+10% FBS was added at the volume of 100 μl/well. After two hours of incubation at room temperature the plates were washed 4 times with Wash Buffer, then 100 μl/well of TMB substrate (TMB substrate kit, Thermo Fisher Scientific, cat: 34021) was added for 10 minutes at room temperature in the dark. The reaction was stopped by adding 50 μl of 2M H2SO4. The plates were read in BioTek Synergy H1 multimode microplate reader at a wavelength of 450 nm.
The measured absorbance was corrected by subtracting the mean of blank values (samples without the primary antibody). The absorbance ratios of acetyl to total tubulin assays were calculated and normalized to the reference compound (positive control) 4 parameter logistic curve, where 0% is the fitted bottom and 100% is the fitted top of the curve. The results are expressed as relative EC50.

The test system of assay [2] is murine neuroblastoma N2a cell lines. The assay is described as follows: In vitro α-tubulin acetylation in N2a cell line. The class given is cell-based. The note with it: N2a cells, 16 hours; dose of the tabulated value not stated (tested at 10 μM, 1 μM and 0.1 μM). As for the experimental part: The in vitro α-tubulin acetylation was evaluated on murine neuroblastoma N2a cell lines.
Cells were maintained in Eagle's Minimum Essential Medium (ATCC, cat: 30-2003) supplemented with 10% fetal bovine serum—FBS (Gibco, cat: 10270-106).
Cells were plated in 12-well plates (Costar, cat: 3512) at the density of 6×10^4 cells/cm^2, respectively. The test compounds were prepared as 20× concentrated medium solutions in respect to the final concentrations. The cells were treated the following day. The compounds were tested at 3 doses: 10 μM, 1 μM and 0.1 μM. The final DMSO content was set as 0.5%. The cells were incubated with the compounds at 37° C. for 16 hours.
At the end of the incubation period, the cells were harvested and centrifuged for 5 minutes at 200×g and washed with 0.9% NaCl at 4° C. The resulting pellet was treated for 30 minutes at 4° C. with 100 μl Complete Lysis-M buffer containing protease inhibitors (Complete Lysis-M Roche+Complete Tablets, Mini Easypack, cat: 4719956001) and phosphatase inhibitor cocktails (PhosStop Easypack, Roche, cat: 4906837001) and then centrifuged 10 minutes at 18213×g. The protein concentration in each supernatant was determined using BCA Protein Assay Kit (Pierce, cat: 23227). The samples were diluted in PBS 1× to obtain 2 μg/ml concentration and coated in MaxiSorp 96-well plates (Nunc, cat: 442404). The plates were incubated overnight at room temperature, then washed twice with Wash Buffer (PBS 1×+0.005% tween 20) and saturated for 1 hour at room temperature with 300 μL of 1×PBS containing 10% FBS. After washing twice with Wash Buffer, the plates were incubated for 2 hours at room temperature in the presence of 100 μl/well either anti-acetylated-α-tubulin antibody (Monoclonal Anti-Tubulin, Acetylated antibody produced in mouse, Sigma-Aldrich, cat: T6793) or total anti-α-tubulin antibody (Monoclonal Anti-α-Tubulin produced in mouse, Sigma-Aldrich, cat: T6074) diluted 1:1000 in 1×PBS containing 10% FBS. Following 5 washing cycles with Wash Buffer, the secondary antibody conjugated with the enzyme HRP (Goat anti-Mouse IgG, IgM, IgA (H+L), stock concentration 0.5 mg/ml, Thermo Fisher Scientific, cat: A10668), diluted 1:1000 in 1×PBS+10% FBS was added at the volume of 100 μl/well. After two hours of incubation at room temperature the plates were washed 4 times with Wash Buffer, then 100 μl/well of TMB substrate (TMB substrate kit, Thermo Fisher Scientific, cat: 34021) was added for 15 minutes at room temperature in the dark. The reaction was stopped by adding 50 μl of 2M H2SO4. The plates were read in BioTek Synergy H1 multimode microplate reader at a wavelength of 450 nm.
The measured absorbance was corrected by subtracting the mean of blank values (samples without the primary antibody). The absorbance ratios of acetyl to total tubulin assays were calculated and normalized to the reference compound (positive control) 4 parameter logistic curve, where 100% is the fitted top of the curve and 0% is DMSO control (protein extract obtained from non-treated cells). The results are expressed as fold increase compared to the control (DMSO).

Where two headings read alike, the source gives them in different places.

One may read the EC50 as the concentration at which the effect is half-maximal. As for `Nc1nc2ccc(-c3cn(Cc4ccc(-c5nnc(C(F)F)o5)cc4F)nn3)cc2s1` [Compound 2-A], the EC50 in assay [1] (Homo sapiens, B-cell, 16 h) was 130 nM.

`Nc1nc2ccc(-c3cn(Cc4ccc(-c5nnc(C(F)F)o5)cc4Cl)nn3)cc2s1` [Compound 37-A]: the EC50 in assay [1] (Homo sapiens, B-cell, 16 h) is 65 nM. For the same compound, the “Tubulin acetylation Fold increase compared to control” value (“Tubulin acetylation Fold increase” for short) in assay [2] amounted to 31 fold.

For `FC(F)c1nnc(-c2ccc(Cn3cc(-c4ccccn4)nn3)nc2)o1` [Compound 20-A], the EC50 in assay [1] (Homo sapiens, B-cell, 16 h) stood at 1210 nM. Moreover, in assay [2], the “Tubulin acetylation Fold increase” value worked out at 15 fold.

`Nc1nc2ccc(C3CN(Cc4ccc(C(=O)NNC(=O)C(F)F)s4)N=N3)cc2s1` (stereo not shown) [Compound 48-A]: the EC50 in assay [1] (697 cells, 16 hours, relative EC50) was 7.5 nM. In addition, the “Tubulin acetylation Fold increase” value in assay [2] amounted to 45 fold.

Turning to `FC(F)c1nnc(-c2ccc(Cn3cc(-c4ccccc4)nn3)nc2)o1` [Compound 13-A], the EC50 in assay [1] (Homo sapiens, B-cell, 16 h) worked out at 505 nM. Moreover, the “Tubulin acetylation Fold increase” value in assay [2] is recorded as 6 fold.

For `Nc1nc2ccc(-c3cn(Cc4ccc(-c5nnc(C(F)F)o5)cn4)nn3)cc2s1` [Compound 38-A], in assay [1] (Homo sapiens, B-cell, 16 h), the EC50 was 76 nM. The “Tubulin acetylation Fold increase” value in assay [2] worked out at 22 fold.

For the compound `Nc1nc2ccc(-c3cn(Cc4ccc(-c5nnc(C(F)F)o5)cc4)nn3)cc2s1` [Compound 32-A], in assay [1] (Homo sapiens, B-cell, 16 h), the EC50 was determined as 85 nM. The “Tubulin acetylation Fold increase” value in assay [2] is recorded as 20 fold.

As to `FC(F)c1nnc(-c2ccc(Cn3cc(-c4ccc(NC5=NCCN5)cc4)nn3)cc2)o1` [Compound 1-A], the EC50 in assay [1] (Homo sapiens, B-cell, 16 h) is 585 nM.

In the case of `Fc1ccccc1-c1cn(Cc2ccc(-c3nnc(C(F)F)o3)cn2)nn1` [Compound 14-A], the EC50 in assay [1] (Homo sapiens, B-cell, 16 h) was determined as 476 nM. The “Tubulin acetylation Fold increase” value in assay [2] worked out at 7 fold.
